The results in this text go back to patent US9809583B2 (priority 2014, dated 2017).

In one assay the test system is castrated male rats. In words: Efficacy test in castrated male rat (Hershberger assay). In kind it is in vivo, SD (Sprague-Dawley) rat. The note with it: castrated male SD rats, oral once a day for 14 days. How it is done: SD (Sprague-Dawley) male rats (7-week-old) were castrated under ketamine/xylazine anesthesia, and 5 rats were randomly assigned to one group. From the next day, the agonists were dissolved in a vehicle solution and orally administered at a dose of 5 ml per kg once a day for 14 days. As the vehicle, DMSO, Co-solvent, and DW were prepared at a ratio of 4:80:16 (v/v/v), and Co-solvent was prepared by mixing PEG400, Ethanol, and Tween 80 at a ratio of 85:10:5 (v/v/v). 24 hours after last administration of the drug, their body weight was measured and killed. Thereafter, levator ani muscle, ventral prostate, and seminal vesicles were removed and weighed (Hershberger assay). The following Table 6 represents the result of the efficacy test in castrated male rats.

A further assay has as its target androgen receptor (hAR) (Homo sapiens (Human), UniProt P10275). In words: Test of transcriptional activity (hAR / ARE-Luc dual-luciferase assay in CHO cells). In kind it is cell-based. The note with it: CHO cells with hAR and ARE-Luc, 24 hours, 10 nM DHT = 100%. In short, it runs like this:
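CHO cells cultured 24 h, then transfected with hAR and ARE-Luc plasmids. Transfected cells treated with 0.1˜10,000 nM compound for 24 h; transcriptional activity read by dual-luciferase reporter.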

Like-named read-outs stand apart in the source and are kept apart here.

androgen receptor (hAR), sequence (P10275 whole entry): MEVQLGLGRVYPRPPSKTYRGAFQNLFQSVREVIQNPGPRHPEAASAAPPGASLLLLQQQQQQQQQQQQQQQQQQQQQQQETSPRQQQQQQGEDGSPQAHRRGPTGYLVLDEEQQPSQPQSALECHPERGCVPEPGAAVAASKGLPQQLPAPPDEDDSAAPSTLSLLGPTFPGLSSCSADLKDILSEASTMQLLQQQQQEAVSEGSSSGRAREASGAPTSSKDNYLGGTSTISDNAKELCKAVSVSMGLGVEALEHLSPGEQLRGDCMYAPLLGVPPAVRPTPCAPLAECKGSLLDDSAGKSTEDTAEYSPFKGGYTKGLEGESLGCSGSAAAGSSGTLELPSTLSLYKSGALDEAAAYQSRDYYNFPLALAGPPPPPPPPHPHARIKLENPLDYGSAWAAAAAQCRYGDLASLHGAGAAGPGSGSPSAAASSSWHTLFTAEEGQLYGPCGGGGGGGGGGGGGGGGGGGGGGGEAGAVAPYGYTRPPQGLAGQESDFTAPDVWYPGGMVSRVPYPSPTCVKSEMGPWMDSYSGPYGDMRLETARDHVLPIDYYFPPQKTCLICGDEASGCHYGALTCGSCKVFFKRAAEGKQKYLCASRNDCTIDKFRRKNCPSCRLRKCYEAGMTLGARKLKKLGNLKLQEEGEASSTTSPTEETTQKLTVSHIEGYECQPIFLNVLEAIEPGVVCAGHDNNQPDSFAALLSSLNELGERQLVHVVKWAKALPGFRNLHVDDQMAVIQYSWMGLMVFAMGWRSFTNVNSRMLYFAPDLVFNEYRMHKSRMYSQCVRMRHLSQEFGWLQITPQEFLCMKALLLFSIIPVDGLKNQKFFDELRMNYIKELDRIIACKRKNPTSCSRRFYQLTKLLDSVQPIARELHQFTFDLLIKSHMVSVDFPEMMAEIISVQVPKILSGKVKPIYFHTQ

In the case of `COC(=O)Nc1ccc(OC[C@@H]2CN(c3ccc(C#N)c(C(F)(F)F)c3)[C@@H](C(F)(F)F)O2)cc1` [Example 36, methyl(4-(((2R,5S)-3-(4-cyano-3-(trifluoromethyl)phenyl)-2-(trifluoromethyl)oxazolidin-5-yl)methoxy)phenyl)carbamate], the “levator ani muscle weight % relative to intact control group” value with castrated male rats (0.1 mg/kg) was 18.6 ± 2.2%; in the assay with castrated male rats (0.3 mg/kg), 18.8 ± 2.7%; with castrated male rats (1 mg/kg) it was 53.9 ± 6.5%; in the assay on castrated male rats (3 mg/kg) it was 47.0 ± 2.6%; in the assay on castrated male rats (10 mg/kg) it was 55.2 ± 10.3%; in the assay with castrated male rats (30 mg/kg), 58.2 ± 5.8%. In the assay on castrated male rats (100 mg/kg), the “levator ani muscle weight % relative to intact control group” value is on record as 65.3 ± 7.9%. Moreover, the “seminal vesicles weight % relative to intact control group” value with castrated male rats (0.1 mg/kg) is on record as 2.4 ± 0.6%; in the assay with castrated male rats (0.3 mg/kg) it was −0.2 ± 0.0%; with castrated male rats (1 mg/kg), 4.7 ± 1.0%; in the assay on castrated male rats (3 mg/kg), 3.0 ± 0.7%; with castrated male rats (10 mg/kg) it was 4.7 ± 0.7%; with castrated male rats (30 mg/kg), 10.4 ± 3.1%. The “seminal vesicles weight % relative to intact control group” value in the assay with castrated male rats (100 mg/kg) stood at 16.1 ± 4.0%. Moreover, the “ventral prostate weight % relative to intact control group” value with castrated male rats (0.1 mg/kg) turned out to be 1.0 ± 0.1%; in the assay on castrated male rats (0.3 mg/kg), 0.6 ± 0.1%; in the assay with castrated male rats (1 mg/kg), 8.0 ± 1.6%; in the assay with castrated male rats (3 mg/kg), 4.7 ± 1.9%; with castrated male rats (10 mg/kg) it was 5.8 ± 0.8%; in the assay with castrated male rats (30 mg/kg) it was 10.8 ± 3.1%. Besides, the “ventral prostate weight % relative to intact control group” value in the assay on castrated male rats (100 mg/kg) came out at 12.6 ± 3.1%. The EC50 at androgen receptor (hAR) (EC50 [nM] (mean ± SE)) came to 8.1 ± 1.9 nM.

Consider `N#Cc1ccc(OC[C@@H]2CN(c3ccc(C#N)c(C(F)(F)F)c3)[C@@H](C(F)(F)F)O2)cn1` [Example 44, 5-(((2R,5S)-3-(4-cyano-3-(trifluoromethyl)phenyl)-2-(trifluoromethyl)oxazolidin-5-yl)methoxy)picolinonitrile], for which the “levator ani muscle weight % relative to intact control group” value with castrated male rats (0.1 mg/kg) was 43.3 ± 8.1%; in the assay with castrated male rats (0.3 mg/kg), 66.6 ± 8.7%; in the assay with castrated male rats (1 mg/kg), 82.4 ± 10.2%; in the assay on castrated male rats (3 mg/kg) it was 92.1 ± 6.5%; in the assay with castrated male rats (10 mg/kg), 87.0 ± 7.5%; in the assay with castrated male rats (30 mg/kg), 74.2 ± 2.8%. In the assay on castrated male rats (100 mg/kg), the “levator ani muscle weight % relative to intact control group” value amounted to 90.5 ± 6.5%. Besides, the “seminal vesicles weight % relative to intact control group” value worked out at 6.7 ± 1.5% in the assay on castrated male rats (0.1 mg/kg); 16.9 ± 6.7% with castrated male rats (0.3 mg/kg); 37.9 ± 4.3% in the assay on castrated male rats (1 mg/kg); 54.5 ± 11.9% with castrated male rats (3 mg/kg); 46.1 ± 10.8% in the assay with castrated male rats (10 mg/kg); 49.6 ± 6.0% in the assay on castrated male rats (30 mg/kg). Moreover, the “seminal vesicles weight % relative to intact control group” value in the assay with castrated male rats (100 mg/kg) is on record as 72.4 ± 14.6%. In addition, the “ventral prostate weight % relative to intact control group” value is given as 7.0 ± 3.2% in the assay on castrated male rats (0.1 mg/kg); 13.6 ± 5.0% with castrated male rats (0.3 mg/kg); 26.1 ± 5.2% in the assay with castrated male rats (1 mg/kg); 38.7 ± 8.3% with castrated male rats (3 mg/kg); 28.2 ± 5.5% in the assay with castrated male rats (10 mg/kg); 34.7 ± 4.1% with castrated male rats (30 mg/kg). Further, in the assay with castrated male rats (100 mg/kg), the “ventral prostate weight % relative to intact control group” value turned out to be 39.9 ± 4.7%. Moreover, the 50% effective concentration (EC50) at androgen receptor (hAR) (EC50 [nM] (mean ± SE)) was 2.6 ± 0.4 nM.

For the compound `COC(=O)N1CCN(C(=O)[C@@H]2CN(c3ccc(C#N)c(C(F)(F)F)c3)[C@@H](C(F)(F)F)O2)CC1` [Example 173, methyl 4-((2R,5S)-3-(4-cyano-3-(trifluoromethyl)phenyl)-2-(trifluoromethyl)oxazolidine-5-carbonyl)piperazine-1-carboxylate], the “levator ani muscle weight % relative to intact control group” value was 9.8 ± 0.6% in the assay with castrated male rats (0.03 mg/kg); 15.0 ± 1.2% in the assay on castrated male rats (0.1 mg/kg); 37.5 ± 2.3% in the assay with castrated male rats (0.3 mg/kg); 61.1 ± 9.9% in the assay with castrated male rats (1 mg/kg); 69.9 ± 3.6% with castrated male rats (3 mg/kg); 93.0 ± 11.0% in the assay on castrated male rats (10 mg/kg). Further, the “levator ani muscle weight % relative to intact control group” value is given as 91.4 ± 8.2% with castrated male rats (30 mg/kg) and 99.5 ± 13.0% in the assay with castrated male rats (100 mg/kg). Also, the “seminal vesicles weight % relative to intact control group” value in the assay with castrated male rats (0.03 mg/kg) is 1.3 ± 0.4%; in the assay with castrated male rats (0.1 mg/kg), 1.3 ± 0.3%; in the assay on castrated male rats (0.3 mg/kg), 2.9 ± 0.3%; with castrated male rats (1 mg/kg) it was 5.9 ± 2.1%; in the assay on castrated male rats (3 mg/kg), 20.3 ± 4.8%; with castrated male rats (10 mg/kg), 34.5 ± 4.0%. Further, the “seminal vesicles weight % relative to intact control group” value was 45.5 ± 8.6% in the assay on castrated male rats (30 mg/kg) and 52.8 ± 10.6% in the assay on castrated male rats (100 mg/kg). In addition, the “ventral prostate weight % relative to intact control group” value in the assay on castrated male rats (0.03 mg/kg) was 0.6 ± 0.1%; with castrated male rats (0.1 mg/kg) it was 3.2 ± 0.6%; in the assay on castrated male rats (0.3 mg/kg) it was 3.5 ± 0.5%; in the assay on castrated male rats (1 mg/kg), 9.1 ± 2.1%; in the assay on castrated male rats (3 mg/kg), 12.4 ± 3.5%; in the assay on castrated male rats (10 mg/kg) it was 24.4 ± 2.0%. Further, the “ventral prostate weight % relative to intact control group” value in the assay with castrated male rats (30 mg/kg) was found to be 33.2 ± 3.3%; with castrated male rats (100 mg/kg) it was 48.6 ± 9.3%. The EC50 at androgen receptor (hAR) (EC50 [nM] (mean ± SE)) came out at 5.34 nM.

In the case of “(2R,5S)-3-(3-chloro-4-cyanophenyl)-N-(2-chloropyridin-4-yl)-2-(trifluoromethyl)oxazolidine-5-carboxamide [Example 136]”, the “levator ani muscle weight % relative to intact control group” value in the assay with castrated male rats (0.03 mg/kg) worked out at 3.7 ± 0.8%; in the assay with castrated male rats (0.1 mg/kg) it was 4.5 ± 0.9%; with castrated male rats (0.3 mg/kg), 10.0 ± 0.8%; with castrated male rats (1 mg/kg), 29.1 ± 3.3%; in the assay on castrated male rats (3 mg/kg), 36.6 ± 3.4%; with castrated male rats (10 mg/kg), 61.8 ± 3.1%. For the same compound, the “levator ani muscle weight % relative to intact control group” value in the assay with castrated male rats (30 mg/kg) is recorded as 81.4 ± 10.9%; in the assay on castrated male rats (100 mg/kg), 98.5 ± 7.7%. Further, the “seminal vesicles weight % relative to intact control group” value with castrated male rats (0.03 mg/kg) is reported as −0.1 ± 0.0%; in the assay with castrated male rats (0.1 mg/kg), −0.4 ± 0.1%; with castrated male rats (0.3 mg/kg), 0.8 ± 0.1%; in the assay on castrated male rats (1 mg/kg) it was 0.9 ± 0.2%; in the assay on castrated male rats (3 mg/kg) it was 2.4 ± 0.7%; with castrated male rats (10 mg/kg) it was 11.0 ± 3.6%. The “seminal vesicles weight % relative to intact control group” value in the assay on castrated male rats (30 mg/kg) came to 35.8 ± 14.4%; in the assay on castrated male rats (100 mg/kg), 57.8 ± 17.9%. Besides, the “ventral prostate weight % relative to intact control group” value with castrated male rats (0.03 mg/kg) is recorded as 1.7 ± 0.5%; with castrated male rats (0.1 mg/kg), −0.6 ± 0.3%; in the assay with castrated male rats (0.3 mg/kg), 1.2 ± 0.3%; with castrated male rats (1 mg/kg) it was 2.6 ± 0.4%; in the assay with castrated male rats (3 mg/kg), 4.1 ± 0.9%; in the assay on castrated male rats (10 mg/kg), 10.5 ± 3.7%. For the same compound, the “ventral prostate weight % relative to intact control group” value in the assay with castrated male rats (30 mg/kg) stood at 25.4 ± 7.8%; in the assay with castrated male rats (100 mg/kg), 42.1 ± 7.5%. At androgen receptor (hAR) (read-out: EC50 [nM] (mean ± SE)), the concentration giving a half-maximal response (EC50) amounted to 5.07 nM.
